Data: paper PMC5041982, “Small-molecule inhibition of STAT3 in radioresistant head and neck squamous cell carcinoma” (Oncotarget, 2016)
In brackets after ≈: the same amount, converted by molar mass. Where two headings read alike, the source gives them in different places.

Key:
[1] = test system: UM-SCC-17B cells; test: Anchorage dependent growth (MTT); format: cell-based; settings: Homo sapiens, 48 hrs
Method: (§1) GAPDH-normalized pSTAT3 or pSTAT1 values were divided by that for untreated cells and expressed in percentage. These values were plotted as a function of Log [M] compound, and IC50 values calculated using GraphPad. […] Viable cells quantitated using MTT. Relative % viability was measured by (viability after any treatment ÷ viability of untreated cells × 100) and plotted as a function of Log [M] […] C. […] Representative curves are shown.
(§2) Cells were cultured in triplicates in complete DMEM ± drug, in ultra-low attachment 96 well plates for 72 hrs or cell-culture treated plates for 48 hrs and viable cells were quantitated using MTT. Optical density (OD) was measured at 590 nm using a 96-well multi-scanner (EL-800 universal microplate reader, BioTek Inc, VT, USA). Relative % viability (viability after any treatment ÷ viability of untreated cells × 100) was plotted along Y-axis. At least 2 replicates experiments were performed and were used for IC50 calculation using GraphPad software.

[2] = biological target: T1, pSTAT1 (Tyr-701) (Homo sapiens, UniProt P42224); test: Phosphoflow, IFN-γ-induced pSTAT1 in Kasumi-1 cells; format: cell-based
T1 construct: endogenous in cells; host or cells: Kasumi-1
T1 sequence (P42224 1-750): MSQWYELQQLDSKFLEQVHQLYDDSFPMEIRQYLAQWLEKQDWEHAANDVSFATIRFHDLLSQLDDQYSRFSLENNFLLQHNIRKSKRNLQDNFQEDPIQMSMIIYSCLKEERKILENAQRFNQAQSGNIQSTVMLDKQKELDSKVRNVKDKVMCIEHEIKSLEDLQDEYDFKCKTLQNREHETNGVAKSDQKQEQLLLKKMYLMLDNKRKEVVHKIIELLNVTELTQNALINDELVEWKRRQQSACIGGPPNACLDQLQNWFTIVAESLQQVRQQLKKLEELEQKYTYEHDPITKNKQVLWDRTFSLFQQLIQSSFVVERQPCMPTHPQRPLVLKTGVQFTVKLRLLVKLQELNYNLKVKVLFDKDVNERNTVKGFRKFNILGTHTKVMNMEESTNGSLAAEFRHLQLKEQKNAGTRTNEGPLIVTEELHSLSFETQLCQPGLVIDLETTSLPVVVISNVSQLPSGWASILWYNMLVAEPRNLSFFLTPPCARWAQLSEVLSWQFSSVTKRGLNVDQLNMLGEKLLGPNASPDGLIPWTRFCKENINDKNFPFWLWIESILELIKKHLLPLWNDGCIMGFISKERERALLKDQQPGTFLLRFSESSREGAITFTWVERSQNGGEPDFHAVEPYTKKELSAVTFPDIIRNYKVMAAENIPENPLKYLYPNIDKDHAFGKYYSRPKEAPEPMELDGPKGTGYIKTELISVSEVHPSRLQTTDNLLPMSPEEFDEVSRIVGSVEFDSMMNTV

[3] = test system: HNSCC cell lines; test: Anchorage independent growth (MTT), all four cell lines; format: cell-based; settings: Homo sapiens; SCC-35, SCC-61, UM-SCC-17B, HN30; read-out: Anchorage independent growth IC50, range over all four cell lines
Method: as §1, §2

[4] = Solubility in PBS; format: physicochemical; settings: 60 min at 37°C in PBS, pH 7.4

COc1ccc(S(=O)(=O)Nc2cc(-c3c(O)ccc4ccccc34)c(O)c3ccccc23)cc1 [Compound C188-9]
IC50 ([1]; mean, read-out: Anchorage dependent growth (MTT) IC50): 3.2 ± 0.6 µM | IC50 ([1]; Figure 4B, read-out: Anchorage Dependent growth IC50, representative experiment): 2.7 µM | IC50 ([2]; Figure 2C, Kasumi-1, read-out: Phosphoflow pSTAT1 (Tyr-701) IC50, representative experiment): 13.4 µM | IC50 ([2]; Kasumi-1, IFN-γ 10 ng/ml 15 min, mean, n ≥ 2, read-out: Ligand Induced Phosphorylation (Phosphoflow) pSTAT1 (IFN-γ) IC50): 9.6 ± 5.6 µM | IC50 [3]: 0.7 to 14.8 µM | solubility at 60 min [4]: 13.1 µM (≈ 6.18 µg/mL)
